From US20080275078A1, “Pyrazolo[3,4-B] Pyridine Compounds and Their Use as Pde4 Inhibitors” (Glaxo Group Limited, priority 2004, published 2008)

tested on: dinitrofluorobenzene (DNFB)-induced delayed type hypersensitivity (DTH) response in pigs; assay: In Vivo Assay A: pig model of atopic dermatitis, skin topical administration; details: 1% (w/w) cream formulation; p<0.05 by ANOVA
Text: The pig DTH (delayed type hypersensitivity) model of contact hypersensitivity utilizes the Th2-mediated inflammatory response in pig skin to mimic the pathology of atopic dermatitis in humans. The model measures the potential anti-inflammatory effect of compounds, topically-applied to the skin, on the acute DTH (delayed type hypersensitivity) response in castrated male Yorkshire pigs.
In general in the assay, pigs (domestic Yorkshire pigs, 15-18 kg at time of sensitization, castrated males) are first sensitized by topical application of ca. 10% (w/v) dinitrofluorobenzene (DNFB) dissolved in DMSO:acetone:olive oil (ca. 1:5:3) (ca. 40 mg DNFB, 400 microlitre solution total) to the ears (outer) and groin (inner). The pigs are then challenged 12 days later with ca. 0.6% (w/v) DNFB applied to randomized sites on the shaved back of the pigs (ca. 90 micrograms/site; sites are identified and numbered by grid made with marking pen).
On the day of challenge, the treatments are performed at the challenge sites at about 2 hours prior to and about 6 hours after challenge (for DMSO/acetone solutions/suspensions containing the PDE4 inhibitor, to maximize exposure to drug), or at about 30 minutes after and about 6 hours after challenge (for topical ointments or creams containing the PDE4 inhibitor, representing a more clinically relevant treatment protocol).
One day (about 24 hrs) after challenge, and optionally again at ca. 48 hrs post challenge, test sites are visually evaluated for intensity and extent of erythema by measuring the diameter of the reaction at its widest point and assigning scores of 0 to 4 for each of erythema intensity and erythema extent. Induration (a measure of swelling) is also scored 0 to 4. Scores for erythema intensity, erythema extent and induration are assigned according to the following criteria: Intensity of Erythema: 0=normal, 1=minimal, barely visible, 2=mild, 3=moderate, 4=severe. Extent of Erythema (not raised): 0=no edema, 1=macules of pin head size, 2=lentil sized macules, 3=confluent macules, 4=diffuse over entire site. Induration (palpable): 0=normal, 1=nodules of pin head size, 2=doughy lentil sized nodules, 3=confluent firm nodules, 4=diffuse hard lesion. The summed visual score at ca. 24 hours includes the individual scores for erythema intensity, erythema extent, and induration; so the maximal summed score for each site would be 12. High summed scores can generally indicate a high inflammatory response. Visual scores are subject to some inaccuracy/error.
Differences in the summed score between adjacent control (placebo) and treatment sites on the grids are calculated. This difference value is then used to determine the percent inhibition compared to the summed score for the control (placebo) sites. The more negative the difference value, the greater the calculated inhibition. Percent inhibition of (percent inhibition compared to) the mean summed score can be calculated.
About 24 hours after challenge, treatment sites can optionally also be visually evaluated for lesion area.
The anti-inflammatory effect of the compound 4-{[1-(aminocarbonyl)-4-piperidinyl]amino}-N-[(3,4-dimethylphenyl)methyl]-1-ethyl-1H-pyrazolo[3,4-b]pyridine-5-carboxamide (“Example 2 or 2A compound”), applied topically to the skin, on the acute DTH response in castrated male Yorkshire pigs is compared to that of another PDE4 inhibitor cipamfylline (BRL-61063) and the topical immunomodulator pimecrolimus.
In the above assay, the Example 2 or 2A compound is topically administered: either (A) at ca. 2.5% (w/v) concentration in a solution of ca. 10% DMSO/90% acetone (ca. 50 microlitres or ca. 1.5 mg/site) at about 2 hours prior to and about 6 hours after the DNFB challenge; or (B) at ca. 0.5% (w/w) concentration in an ointment containing propylene glycol (PG)* (ca. 25 mg of formulation/site) at about 30 minutes after and about 6 hours after the DNFB challenge. […]

| SMILES | inhibition of the summed scores |
| --- | --- |
| CC[C@@H]1/C=C(\C)C[C@H](C)C[C@H](OC)[C@H]2O[C@@](O)(C(=O)C(=O)N3CCCC[C@H]3C(=O)O[C@H](/C(C)=C/[C@@H]3CC[C@H](Cl)[C@H](OC)C3)[C@H](C)[C@@H](O)CC1=O)[C@H](C)C[C@@H]2OC [pimecrolimus, reference compound] | about 29% |

tested on: COPD patients; assay: not given; details: roflumilast, Lipworth 2005; cited from earlier work

| SMILES | FEV1 in COPD patients |
| --- | --- |
| O=C(Nc1c(Cl)cncc1Cl)c1ccc(OC(F)F)c(OCC2CC2)c1 [roflumilast] | small improvements in FEV1 |

molecular target: T1, PDE4B (human recombinant) (Homo sapiens, UniProt Q07343); assay: Inhibition of PDE4B activity (SPA or FP assay); assay type: biochemical; details: SPA or FP assay or similar; n=1 or average of 2 or more readings; range given for the listed group of Examples; read-out: PDE4B pIC50 (±about 0.5) (converted)
T1 construct: made in house; host or cells: Saccharomyces cerevisiae strain GL62 (PDE-deficient yeast), 100,000xg supernatant of cell lysate, as described in WO 94/20079
Text: Human recombinant PDE4B, in particular the 2B splice variant thereof (HSPDE4B2B), is disclosed in WO 94/20079 and also M. M. McLaughlin et al., “A low Km, rolipram-sensitive, cAMP-specific phosphodiesterase from human brain: cloning and expression of cDNA, biochemical characterisation of recombinant protein, and tissue distribution of mRNA”, J. Biol. Chem., 1993, 268, 6470-6476. For example, in Example 1 of WO 94/20079, human recombinant PDE4B is described as being expressed in the PDE-deficient yeast Saccharomyces cerevisiae strain GL62, e.g. after induction by addition of 150 uM CuSO4, and 100,000×g supernatant fractions of yeast cell lysates are described for use in the harvesting of PDE4B enzyme.
The ability of compounds to inhibit catalytic activity at PDE4B or 4D (human recombinant), PDE3 (from bovine aorta), PDE5 (human recombinant) or PDE6 (from bovine retina) can optionally be determined by Scintillation Proximity Assay (SPA) in a 96-well format. • Test compounds (as a solution in DMSO, preferably about 2 microlitre (ul) volume of DMSO solution) are preincubated at ambient temperature (room temperature, e.g. 19-23° C.) in Wallac Isoplates (code 1450-514) with PDE enzyme in 50 mM Tris-HCl buffer pH 7.5, 8.3 mM MgCl2, 1.7 mM EGTA, 0.05% (w/v) bovine serum albumin for 10-30 minutes (usually 30 minutes). The enzyme concentration is adjusted so that no more than 20% hydrolysis of the substrate defined below occurs in control wells without compound, during the incubation. For the PDE3, PDE4B and PDE4D assays, [5′,8-^3H]Adenosine 3′,5′-cyclic phosphate (Amersham Pharmacia Biotech, code TRK.559; or Amersham Biosciences UK Ltd, Pollards Wood, Chalfont St Giles, Buckinghamshire HP8 4SP, UK) is added to give 0.05 uCi per well and about 10 nM final concentration. For the PDE5 and PDE6 assays, [8-^3H]Guanosine 3′,5′-cyclic phosphate (Amersham Pharmacia Biotech, code TRK.392) is added to give 0.05 uCi per well and about 36 nM final concentration. Plates containing assay mixture, preferably approx. 100 ul volume of assay mixture, are mixed on an orbital shaker for 5 minutes and incubated at ambient temperature for 1 hour. Phosphodiesterase SPA beads (Amersham Pharmacia Biotech, code RPNQ 0150) are added (about 1 mg per well) to terminate the assay. Plates are sealed and shaken and allowed to stand at ambient temperature for 35 minutes to 1 hour (preferably 35 minutes) to allow the beads to settle. Bound radioactive product is measured using a WALLAC TRILUX 1450 Microbeta scintillation counter. For inhibition curves, 10 concentrations (e.g. 1.5 nM-30 uM) of each compound are assayed. Curves are analysed using ActivityBase and XLfit (ID Business Solutions Limited, 2 Ocean Court, Surrey Research Park, Guildford, Surrey GU2 7QB, United Kingdom) Results are expressed as pIC50 values.
The ability of compounds to inhibit catalytic activity at PDE4B (human recombinant) or PDE4D (human recombinant) can optionally be determined by IMAP Fluorescence Polarisation (FP) assay (IMAP Explorer kit, available from Molecular Devices Corporation, Sunnydale, Calif., USA; Molecular Devices code: R8062) in a 384-well format.
The IMAP FP assay is able to measure PDE activity in an homogenous, non-radioactive assay format. The FP assay uses the ability of immobilised trivalent metal cations, coated onto nanoparticles (tiny beads), to bind the phosphate group of Fl-AMP that is produced on the hydrolysis of fluorescein-labelled (Fl) cyclic adenosine mono-phosphate (Fl-cAMP) to the non-cyclic Fl-AMP form. […] Binding of Fl-AMP product to the beads (coated with the immobilised trivalent cations) slows the rotation of the bound Fl-AMP and leads to an increase in the fluorescence polarisation ratio of parallel to perpendicular light. Inhibition of the PDE reduces/inhibits this signal increase. […]

T1 sequence (Q07343 1-564 isoform Q07343-2): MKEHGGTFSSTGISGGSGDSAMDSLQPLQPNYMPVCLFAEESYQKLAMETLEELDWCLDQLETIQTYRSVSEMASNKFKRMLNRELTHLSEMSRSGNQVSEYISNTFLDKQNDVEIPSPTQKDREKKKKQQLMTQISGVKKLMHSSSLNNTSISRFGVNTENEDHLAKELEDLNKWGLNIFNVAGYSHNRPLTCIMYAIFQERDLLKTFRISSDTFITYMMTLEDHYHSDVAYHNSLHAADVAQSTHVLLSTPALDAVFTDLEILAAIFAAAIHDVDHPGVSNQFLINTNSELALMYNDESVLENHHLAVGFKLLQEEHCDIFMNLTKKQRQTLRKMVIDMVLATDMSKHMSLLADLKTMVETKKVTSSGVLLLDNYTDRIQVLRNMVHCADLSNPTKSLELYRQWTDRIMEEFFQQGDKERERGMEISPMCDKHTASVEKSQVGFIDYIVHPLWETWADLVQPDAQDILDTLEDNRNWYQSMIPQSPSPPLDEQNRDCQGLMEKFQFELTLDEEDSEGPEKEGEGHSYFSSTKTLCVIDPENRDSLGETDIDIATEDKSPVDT

| SMILES | IC50 |
| --- | --- |
| CCn1ncc2c(N[C@H]3CC[C@@H](C(N)=O)CC3)c(C(=O)NCc3ccc(C)c(C)c3)cnc21 [Example 8, 4-{[cis-4-(aminocarbonyl)cyclohexyl]amino}-N-[(3,4-dimethylphenyl)methyl]-1-ethyl-1H-pyrazolo[3,4-b]pyridine-5-carboxamide] | 1 to 3.16 nM |
| CCn1ncc2c(NC3CCN(C(N)=O)CC3)c(C(=O)NCc3ccc(OC)cc3)cnc21 [Example 3, 4-{[1-(aminocarbonyl)-4-piperidinyl]amino}-1-ethyl-N-{[4-(methyloxy)phenyl]methyl}-1H-pyrazolo[3,4-b]pyridine-5-carboxamide] | 1 to 3.16 nM |
| CCn1ncc2c(NC3CCC(C(N)=O)CC3)c(C(=O)NCc3ccc(C)c(C)c3)cnc21 (stereo not drawn) [Example 4, 4-{[4-(aminocarbonyl)cyclohexyl]amino}-N-[(3,4-dimethylphenyl)methyl]-1-ethyl-1H-pyrazolo[3,4-b]pyridine-5-carboxamide] | 1 to 3.16 nM |
| CCn1ncc2c(N[C@@H]3CCN(C(N)=O)C3)c(C(=O)NCc3ccc(C)c(C)c3)cnc21 [Example 72, 4-{[(3R)-1-(aminocarbonyl)-3-pyrrolidinyl]amino}-N-[(3,4-dimethylphenyl)methyl]-1-ethyl-1H-pyrazolo[3,4-b]pyridine-5-carboxamide] | 31.6 to 100 nM |
| CCn1ncc2c(N[C@H]3CCN(C(N)=O)C3)c(C(=O)NCc3ccc(C)c(C)c3)cnc21 [Example 70, 4-{[(3S)-1-(aminocarbonyl)-3-pyrrolidinyl]amino}-N-[(3,4-dimethylphenyl)methyl]-1-ethyl-1H-pyrazolo[3,4-b]pyridine-5-carboxamide] | ~10 nM |
| CCn1ncc2c(N[C@H]3CC[C@@H](C(N)=O)CC3)c(C(=O)NCc3ccc(OC)cc3)cnc21 [Example 47, 4-{[cis-4-(aminocarbonyl)cyclohexyl]amino}-1-ethyl-N-{[4-(methyloxy)phenyl]methyl}-1H-pyrazolo[3,4-b]pyridine-5-carboxamide] | 1.26 to 5.01 nM |
| CCn1ncc2c(N[C@H]3CC[C@H](C(N)=O)CC3)c(C(=O)NCc3ccc(C)c(C)c3)cnc21 [Example 9, 4-{[trans-4-(aminocarbonyl)cyclohexyl]amino}-N-[(3,4-dimethylphenyl)methyl]-1-ethyl-1H-pyrazolo[3,4-b]pyridine-5-carboxamide] | 158 to 200 nM |
| CCn1ncc2c(N[C@H]3CC[C@@H](C(N)=O)CC3)c(C(=O)NCc3ccc(C)cc3C)cnc21 [Example 45, 4-{[cis-4-(aminocarbonyl)cyclohexyl]amino}-N-[(2,4-dimethylphenyl)methyl]-1-ethyl-1H-pyrazolo[3,4-b]pyridine-5-carboxamide] | 1.26 to 5.01 nM |
| CCn1ncc2c(N[C@@H]3CCN(C(N)=O)C3)c(C(=O)NCc3ccc(C)cc3C)cnc21 [Example 71, 4-{[(3R)-1-(aminocarbonyl)-3-pyrrolidinyl]amino}-N-[(2,4-dimethylphenyl)methyl]-1-ethyl-1H-pyrazolo[3,4-b]pyridine-5-carboxamide] | 31.6 to 100 nM |
| CCn1ncc2c(NC3CCN(C(N)=O)CC3)c(C(=O)NCc3ccc(C)cc3C)cnc21 [Example 1, 4-{[1-(aminocarbonyl)-4-piperidinyl]amino}-N-[(2,4-dimethylphenyl)methyl]-1-ethyl-1H-pyrazolo[3,4-b]pyridine-5-carboxamide] | 0.631 to 0.794 nM |
| CCn1ncc2c(N[C@H]3CC[C@H](C(N)=O)CC3)c(C(=O)NCc3ccc(C)cc3C)cnc21 [Example 46, 4-{[trans-4-(aminocarbonyl)cyclohexyl]amino}-N-[(2,4-dimethylphenyl)methyl]-1-ethyl-1H-pyrazolo[3,4-b]pyridine-5-carboxamide] | 158 to 200 nM |
| CCn1ncc2c(N[C@H]3CCN(C(N)=O)C3)c(C(=O)NCc3ccc(C)cc3C)cnc21 [Example 69, 4-{[(3S)-1-(aminocarbonyl)-3-pyrrolidinyl]amino}-N-[(2,4-dimethylphenyl)methyl]-1-ethyl-1H-pyrazolo[3,4-b]pyridine-5-carboxamide] | ~10 nM |
| CCn1ncc2c(NC3CCC(C(N)=O)CC3)c(C(=O)NCc3ccc(C)cc3C)cnc21 (stereo not drawn) [Example 5, 4-{[4-(aminocarbonyl)cyclohexyl]amino}-N-[(2,4-dimethylphenyl)methyl]-1-ethyl-1H-pyrazolo[3,4-b]pyridine-5-carboxamide] | 1 to 3.16 nM |
